Experiments:
[1] = biological target: sGC α1/β1 heterodimer (Homo sapiens (Human), UniProt Q02108+Q02153); assay: Cell-based sGC functional assay (cyclic GMP assay for sGC activator: CASA assay); parameters: % Activation: concentration or dose not given beside the values; conditions: CHO-K1/sGC cells; for Emax: CHO-K1, activity expressed as percentage of compound A (standard), read-out: % Activation; for EC50: inflection point, 4P fit, read-out: IP; for % Activation: activity expressed as percentage of compound A (standard)
Method in brief: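 CHO-K1 cells stably expressing human sGC α1/β1 were pre-incubated 30 min at 25° C with or without 1 μM DETA-NO, then exposed to compound for 1 hr at 37° C with 0.5 mM IBMX and 2.5% DMSO final. Intracellular cGMP was measured by HTRF, expressed as % of reference sGC-HDA maximum; inflection point and maximum fold induction came from 4-parameter fits.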

[2] = biological target: human recombinant sGC enzyme (Homo sapiens (Human), UniProt Q02108+Q02153); assay: Size Exclusion Chromatography (SEC) competition binding assay using [3H] Ex-77B as the radioligand; conditions: [3H] Ex-77B radioligand, 24 hours at 37° C.
Method in brief: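 Recombinant human sGC binding measured by competition against tritiated Ex-77B radioligand, with non-specific binding defined by 1 μM unlabeled Ex-77B.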

[3] = tested on: Spontaneously hypertensive rats (SHR); assay: Acute efficacy in spontaneously hypertensive rats (SHR); format: in vivo, rat
From the text: Acute Efficacy in Spontaneously Hypertensive Rats (SHR)
Spontaneously hypertensive rats (SHR, male, Charles River) were implanted with DSI TA11PA-C40 telemetry device (Data Sciences, Inc., St. Paul, Minn.) under isoflurane or ketamine/metomidine anesthesia. The telemetry unit catheter was inserted into the descending aorta via the femoral artery and the telemetry device was implanted subcutaneously in the left flank area. Animals were allowed to recover from surgery for 14 days before the start of any studies. Blood pressure, heart rate, and activity signals from conscious, freely moving rats were recorded continuously for 30 seconds every 10 minutes. On the day prior to administration of compound, a single oral dose of vehicle (10% transcutol/20% Cremophor/70% water) was administered to all animals to establish baseline control data. The blood pressure lowering efficacy of compound (PO) or vehicle was evaluated following a single oral gavage. Data were collected as hourly averages, and changes in blood pressure were calculated by subtracting control baseline data on an hourly basis. Animals were maintained on normal diet with a 12 hour light-dark cycle.
Maximum peak decreases of systolic blood pressure (SBP) in SHR at a particular P.O. dose (mpk milligrams per kilogram) for the following Example compounds are provided.

Row | SMILES | Emax [1] [%] | EC50 [1] [nM] | Ki [2] [nM] | % Activation [1] [%] | Category: maximum peak decrease of systolic blood pressure (SBP) in SHR ([3]; Dose P.O. 3 mpk) | Category: maximum peak decrease of systolic blood pressure (SBP) in SHR ([3]; Dose P.O. 1 mpk)
1 | CCCCn1nc(-c2nc(N)c3c(n2)NC(=O)[C@@]3(C)c2ccc(CCC(=O)O)cc2)c2ccc(Cl)nc21 [Example 13B, (S)-3-(4-{4-amino-2-(1-butyl-6-chloro-1H-pyrazolo[3,4-b]pyridin-3-yl)-5-methyl-6-oxo-6,7-dihydro-5H-pyrrolo[2,3-d]pyrimidin-5-yl}phenyl)propanoic acid] | 86 | 152 | 0.112 |  | A (decrease in SBP in SHRs 5-25 mmHg) | 
2 | CC(C)(Cc1cccc(C2(C)C(=O)Nc3nc(-c4nn(CCC(F)(F)C(F)(F)F)c5cc(Cl)ccc45)nc(N)c32)c1)C(=O)O (stereo not shown) [Example 27B, 3-(3-{4-amino-2-[6-chloro-1-(3,3,4,4,4-pentafluorobutyl)-1H-indazol-3-yl]-5-methyl-6-oxo-6,7-dihydro-5H-pyrrolo[2,3-d]pyrimidin-5-yl}phenyl)-2,2-dimethylpropanoic acid] | 120 | 331 | 0.221 |  |  | A (decrease in SBP in SHRs 5-25 mmHg)
3 | CCCCn1nc(-c2nc(N)c3c(n2)NC(=O)[C@@]3(C)c2ccc(CCC(=O)O)cc2)c2cccnc21 [Example 14B, (S)-3-(4-{4-amino-2-(1-butyl-1H-pyrazolo[3,4-b]pyridin-3-yl)-5-methyl-6-oxo-6,7-dihydro-5H-pyrrolo[2,3-d]pyrimidin-5-yl}phenyl)propanoic acid] | 90 | 525 | 0.21 |  | A (decrease in SBP in SHRs 5-25 mmHg) | 
4 | CC(C)(Cc1ccc(C2(C)C(=O)Nc3nc(-c4nn(CCC(F)(F)C(F)(F)F)c5ncccc45)nc(N)c32)cc1)C(=O)O (stereo not shown) [Example 9B] | 118 | 1370 | 0.374 |  | A (decrease in SBP in SHRs 5-25 mmHg) | 
5 | CC(Cc1ccc(C2(C)C(=O)Nc3nc(-c4nn(CCC(F)(F)C(F)(F)F)c5cc(Cl)ccc45)nc(N)c32)cc1)C(=O)O (single isomer, unassigned) [Example 34AB, 3-(4-{4-amino-2-[6-chloro-1-(3,3,4,4,4-pentafluorobutyl)-1H-indazol-3-yl]-5-methyl-6-oxo-6,7-dihydro-5H-pyrrolo[2,3-d]pyrimidin-5-yl}phenyl)-2-methylpropanoic acid] |  | 771 | 0.231 | 115 |  | A (decrease in SBP in SHRs 5-25 mmHg)
6 | CC(Cc1ccc(C2(C)C(=O)Nc3nc(-c4nn(CCC(F)(F)C(F)(F)F)c5cc(Cl)ccc45)nc(N)c32)cc1)C(=O)O (single isomer, unassigned) [Example 34AA, 3-(4-{4-amino-2-[6-chloro-1-(3,3,4,4,4-pentafluorobutyl)-1H-indazol-3-yl]-5-methyl-6-oxo-6,7-dihydro-5H-pyrrolo[2,3-d]pyrimidin-5-yl}phenyl)-2-methylpropanoic acid] |  | 437 | 0.138 | 81 | A (decrease in SBP in SHRs 5-25 mmHg) | 
7 | CC1(c2cccc(CCC(=O)O)c2)C(=O)Nc2nc(-c3nn(Cc4ccccc4F)c4ncccc34)nc(N)c21 (stereo not shown) [Example 22A, 3-(3-{4-amino-2-[1-(2-fluorobenzyl)-1H-pyrazolo[3,4-b]pyridin-3-yl]-5-methyl-6-oxo-6,7-dihydro-5H-pyrrolo[2,3-d]pyrimidin-5-yl}phenyl)propanoic acid] | 91 | 423 | 0.078 |  | A (decrease in SBP in SHRs 5-25 mmHg) | 
8 | CC(C)(Cc1ccc(C2(C)C(=O)Nc3nc(-c4nn(CCC(F)(F)C(F)(F)F)c5cc(Cl)ccc45)nc(N)c32)cc1)C(=O)O (stereo not shown) [Example 33B, 3-(4-{4-amino-2-[6-chloro-1-(3,3,4,4,4-pentafluorobutyl)-1H-indazol-3-yl]-5-methyl-6-oxo-6,7-dihydro-5H-pyrrolo[2,3-d]pyrimidin-5-yl}phenyl)-2,2-dimethylpropanoic acid] | 100 | 804 | 0.594 |  | B (decrease in SBP in SHRs 25-40 mmHg) | 
9 | CC1CCC(Cn2nc(-c3nc(N)c4c(n3)NC(=O)[C@@]4(C)c3ccc(CCC(=O)O)cc3)c3ccc(Cl)cc32)CC1 (single isomer, unassigned) [Example 5BA] |  | 132 | 0.162 | 76 | B (decrease in SBP in SHRs 25-40 mmHg) | 

The next lines start with results.

Row | Emax [1] [%] | EC50 [1] [nM] | Ki [2] [nM] | % Activation [1] [%] | SMILES | Category: maximum peak decrease of systolic blood pressure (SBP) in SHR ([3]; Dose P.O. 3 mpk) | Category: maximum peak decrease of systolic blood pressure (SBP) in SHR ([3]; Dose P.O. 1 mpk)
10 | 109 | 504 | 0.413 |  | CC(C)(C)CCCn1nc(-c2nc(N)c3c(n2)NC(=O)[C@@]3(C)c2ccc(CCC(=O)O)cc2)c2ccc(Cl)cc21 [Example 52B, (S)-3-(4-{4-amino-2-[6-chloro-1-(4,4-dimethylpentyl)-1H-indazol-3-yl]-5-methyl-6-oxo-6,7-dihydro-5H-pyrrolo[2,3-d]pyrimidin-5-yl}phenyl)propanoic acid] | A (decrease in SBP in SHRs 5-25 mmHg) | 
11 | 65 | 1130 | 0.493 |  | C[C@@]1(c2ccc(CCC(=O)O)cc2)C(=O)Nc2nc(-c3nn(CC4CCC(F)(F)CC4)c4cc(Cl)ccc34)nc(N)c21 [Example 58B, (S)-3-(4-[4-amino-2-{6-chloro-1-[(4,4-difluorocyclohexyl)methyl]-1H-indazol-3-yl}-5-methyl-6-oxo-6,7-dihydro-5H-pyrrolo[2,3-d]pyrimidin-5-yl]phenyl)propanoic acid] | A (decrease in SBP in SHRs 5-25 mmHg) | 
12 | 124 | 843 | 0.42 |  | CC(C)(CC(=O)O)c1csc([C@]2(C)C(=O)Nc3nc(-c4nn(CCC(F)(F)C(F)(F)F)c5ncccc45)nc(N)c32)n1 [Example 79B, (S)-3-(2-{4-amino-5-methyl-6-oxo-2-[1-(3,3,4,4,4-pentafluorobutyl)-1H-pyrazolo[3,4-b]pyridin-3-yl]-6,7-dihydro-5H-pyrrolo[2,3-d]pyrimidin-5-yl}-1,3-thiazol-4-yl)-3-methylbutanoic acid] | A (decrease in SBP in SHRs 5-25 mmHg) | 
13 | 95 | 210 | 0.182 |  | CCCCCCn1nc(-c2nc(N)c3c(n2)NC(=O)[C@@]3(C)c2ccc(CCC(=O)O)cc2)c2ccc(Cl)cc21 [Example 45B, (S)-3-{4-[4-amino-2-(6-chloro-1-hexyl-1H-indazol-3-yl)-5-methyl-6-oxo-6,7-dihydro-5H-pyrrolo[2,3-d]pyrimidin-5-yl]phenyl}propanoic acid] | B (decrease in SBP in SHRs 25-40 mmHg) | 
14 | 108 | 442 | 0.343 |  | CC(C)(Cc1csc([C@]2(C)C(=O)Nc3nc(-c4nn(CCCC(F)(F)F)c5nc(Cl)ccc45)nc(N)c32)n1)C(=O)O [Example 89B, (S)-3-(2-{4-amino-2-[6-chloro-1-(4,4,4-trifluorobutyl)-1H-pyrazolo[3,4-b]pyridin-3-yl]-5-methyl-6-oxo-6,7-dihydro-5H-pyrrolo[2,3-d]pyrimidin-5-yl}-1,3-thiazol-4-yl)-2,2-dimethylpropanoic acid] | B (decrease in SBP in SHRs 25-40 mmHg) | 
15 | 98 | 220 | 0.145 |  | CCCCn1nc(-c2nc(N)c3c(n2)NC(=O)[C@@]3(C)c2ccc(CCC(=O)O)cc2)c2ccc(Cl)cc21 [Example 38B, (S)-3-{4-[4-amino-2-(1-butyl-6-chloro-1H-indazol-3-yl)-5-methyl-6-oxo-6,7-dihydro-5H-pyrrolo[2,3-d]pyrimidin-5-yl]phenyl}propanoic acid] | A (decrease in SBP in SHRs 5-25 mmHg) | 
16 | 116 | 858 | 0.293 |  | Cc1ccc2c(-c3nc(N)c4c(n3)NC(=O)[C@@]4(C)c3ccc(CCC(=O)O)cc3)nn(Cc3ccccc3F)c2c1 [Example 59B, (S)-3-(4-{4-amino-2-[1-(2-fluorobenzyl)-6-methyl-1H-indazol-3-yl]-5-methyl-6-oxo-6,7-dihydro-5H-pyrrolo[2,3-d]pyrimidin-5-yl}phenyl)propanoic acid] | A (decrease in SBP in SHRs 5-25 mmHg) | 
